Data on four molecules can be found in patent publication US20090131441A1, “Metabolites Of 2-Arylpropionic Acid Derivatives And Pharmaceutical Compositions Containing Them” (DOMPE phar.r.ma S.p.A., priority 2005, published 2009).

Series [1] is described as follows: in vitro binding to rat plasma proteins. In kind it is in vitro ADME. The following applies: compound concentration 10 μg/mL, read-out: Protein Binding (converted). An excerpt:
(§1) Table I and II show, as an example, the significant differences in T1/2 and protein binding (%) between metabolites of formula (I) and corresponding parent compounds of formula (III).

Series [2] is described as follows: T1/2 after single bolus i.v. administration in rat. The following applies: in vivo, iv; after single bolus i.v. administration in rat (15 mg/Kg); read-out: T½ (converted).
From the text: Furthermore, the compounds of formula (I) have a pharmacokinetic profile particularly advantageous for the therapeutic use. In fact, as compared to the compounds of formula (III), the compounds of the invention, administered “in vivo” by the i.v. route, show a longer T1/2 associated to a reduced clearance time.
as §1

Series [3] concerns IL-8 induced chemotaxis of human PMNs. Description: IL-8 induced PMN chemotaxis assay. The series is classed as cell-based. The following applies: read-out: inhibition of IL-8-induced PMN migration. The protocol:
The compounds of the invention of formula (I) were evaluated in vitro for their ability to inhibit chemotaxis of polymorphonucleate leukocytes (hereinafter referred to as PMNs) and monocytes induced by the fractions of IL-8 and GRO-α and C5a and directly compared to the corresponding parent 4-isobutyl compounds of formula (III). For this purpose, in order to isolate the PMNs from heparinized human blood, taken from healthy adult volunteers, mononucleates were removed by means of sedimentation on dextran (according to the procedure disclosed by W. J. Ming et al., J. Immunol., 138, 1469, 1987) and red blood cells by a hypotonic solution. The cell vitality was calculated by exclusion with Trypan blue, whilst the ratio of the circulating polymorphonucleates was estimated on the cytocentrifugate after staining with Diff Quick. […]
The compounds of the invention in formula (I) were evaluated at a concentration ranging between 10^−6 and 10^−10 M; for this purpose they were added, at the same concentration, both to the lower pores and the upper pores of the microchamber. […]

Turning to `CC(C)Cc1ccc([C@@H](C)C(=O)NCCCN2CCCCC2)cc1` [(R)-2-[(4-isobutyl)phenyl]-N-[3″-(N′-piperidino)propyl]propionamide, reference compound], in series [1], the fraction unbound at 10 μg/mL is 0.2. Also, the half-life in series [2] is 1 h.
On to `CC(Cc1ccc([C@@H](C)C(=O)NCCCN2CCCCC2)cc1)C(=O)O` (stereo partly shown) [Example 4], for which the fraction unbound at 10 μg/mL in series [1] was 0.3. In series [2], the half-life was 2 h.
Regarding `CC(C)Cc1ccc([C@@H](C)C(=O)NS(C)(=O)=O)cc1` [(R)-2-[(4-isobutyl)phenyl]propionyl methanesulfonamide, reference compound], the fraction unbound at 10 μg/mL in series [1] is less than 0.01. Also, in series [2], the half-life was 0.5 h.
In the case of `CC(Cc1ccc([C@@H](C)C(=O)NS(C)(=O)=O)cc1)C(=O)O` (stereo partly drawn) [Example 1, (2R) (2″ R, S) 2-[4′-(2″-carboxyprop-1-yl)phenyl]propionyl methanesulfonamide], in series [3] (compound concentration 10^−6M), the inhibition at 1 µM turned out to be 66 ± 8%. Moreover, the inhibition at 0.01 µM in series [3] (compound concentration 10^−8M) was 49 ± 9%. For the same molecule, in series [1], the fraction unbound at 10 μg/mL was 0.28. For the same molecule, the half-life in series [2] is 2 h.
